“And” between values parts separate entries of the source, which are not always exact repeats. Equal values may be shown once.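 All cell lines were grown in 96-well plates and treated with compound for 48 hours. GI50 = concentration required for 50% inhibition of growth. At the TGI there is no net growth.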
Experiments:
Test in all cases: NCI anticancer screen, dose series, 48 h
[1] = system: TK-10 renal
[2] = system: UACC-62 melanoma
[3] = system: HCT-15 colon
[4] = system: EKVX NSCLC
[5] = system: UO-31 renal
[6] = system: MOLT-4 leukemia
[7] = system: NCI-H226 lung
[8] = system: SNB-19 CNS
[9] = system: CAKI-1 renal
[10] = system: NCI/ADR-RES ovarian

Row | SMILES | TGI [1] [µM] | TGI [2] | TGI [3] [µM] | TGI [4] | TGI [5] [µM] | TGI [6] | TGI [7] | TGI [8] [µM] | GI50 [1] [µM] | GI50 [2] [µM] | GI50 [3] [µM] | GI50 [4] [µM] | GI50 [5] [µM] | GI50 [9] [µM] | TGI [9] | GI50 [6] [µM] | GI50 [7] [µM] | GI50 [8] [µM] | GI50 [10] [µM] | TGI [10] [µM]
1 | CCCCN(CCCC)c1c([N+](=O)[O-])c(=O)nc2ccccn12 | 85 | > 100 µM | > 100 | 94.1 µM | 94 | > 100 µM | > 100 µM | > 100 |  |  |  |  |  |  |  |  |  |  |  | 
2 | Cc1cc(S(=O)(=O)NC#N)c(S/C(=N\Nc2ccc([N+](=O)[O-])cc2)c2ccc(Cl)cc2)cc1Cl | > 100 | > 100 µM | 59.7 | 70.2 µM | > 100 | > 100 µM | 46.1 µM | > 100 | 25 | > 100 | 11.6 | 20.2 | 34 | 36.1 | > 100 µM | 19.5 | 18.5 | 25.2 |  | 
3 | COc1ccc(/C=C2\CCCC(C(NO)c3ccc(OC)cc3)C2=NO)cc1 (stereo not drawn) | > 100 | > 100 µM | > 100 | > 100 µM | 75.7 | 80.5 µM |  | > 100 |  |  |  |  |  |  | > 100 µM |  |  |  |  | 
4 | CCOC(=O)/C=C1\CCCC12OCCO2 | > 100 | > 100 µM | > 100 |  | > 100 | > 100 µM | > 100 µM | > 100 |  |  |  |  |  |  | > 100 µM |  |  |  |  | 
5 | O=[N+]([O-])c1cnn(C2=CNc3ccccc3N=C2)c1 | > 100 | > 100 µM | > 100 | > 100 µM | > 100 | > 100 µM | > 100 µM | > 100 |  |  |  |  |  |  |  |  |  |  |  | 
6 | Cc1c(C(=O)NCCN2CCOCC2)cn2ncnc(Oc3ccc(NC(=O)Nc4ccc(Cl)c(C(F)(F)F)c4)cc3)c12 |  | 2.84 µM | 2.98 |  | 3.83 | 2.6 µM |  |  |  | 1.34 | 1.44 |  | 2.18 | 1.46 | 2.92 µM | 0.433 |  |  | 2.13 | 5.16
7 | COC(=O)C(CC(=O)Nc1ccc(C)cc1)C(=O)C(=O)Nc1ccccc1C(C)C (stereo not drawn) | > 100 | > 100 µM | > 100 | > 100 µM | > 100 | > 100 µM | > 100 µM | > 100 |  |  |  |  |  |  | > 100 µM |  |  |  |  | 
8 | O=C(c1ccncc1)n1nc(-c2ccccc2)c(N=Nc2ccccc2[N+](=O)[O-])c1-c1ccccc1 | > 100 | > 100 µM |  | > 100 µM | 79.9 | > 100 µM |  | > 100 |  |  |  |  |  |  | > 100 µM |  |  |  |  | 
9 | COc1ccc(/C=C\c2cc(OC)c(O[Si](C)(C)C(C)(C)C)c(OC)c2)cc1 |  | > 100 µM |  | > 100 µM | > 100 | 38.8 µM | > 100 µM | > 100 |  |  |  |  |  |  | > 100 µM |  |  |  |  | 
10 | COC(=O)c1nc(Cl)nc(Cl)c1Cl | 47.8 |  | 46.9 |  | 35.7 | 32.9 µM | 64.4 µM | > 100 |  |  |  |  |  |  | 32.1 µM |  |  |  |  | > 100
11 | CCC1=NC(CO)[C@H](c2ccccc2)O1 (stereo partly drawn) | > 100 | > 100 µM | > 100 | > 100 µM |  |  |  | > 100 |  |  |  |  |  |  | > 100 µM |  |  |  |  | 
12 | CC(=O)NC(CCCCNC(=O)NCCCl)C(=O)NCc1ccccc1 (stereo not drawn) | > 100 | > 100 µM | > 100 | > 100 µM | > 100 | > 100 µM | > 100 µM | > 100 |  |  |  |  |  |  | > 100 µM |  |  |  |  | 
13 | CN(C)CC1CCC/C1=N\O (stereo not drawn) | > 100 | > 100 µM | > 100 |  | > 100 | > 100 µM | > 100 µM |  |  |  |  |  |  |  | > 100 µM |  |  |  |  | 
14 | COC(=O)c1ccccc1NC(=O)C(=O)NNC(=O)c1ccncc1 | > 100 | > 100 µM | > 100 | > 100 µM | > 100 | > 100 µM | > 100 µM | > 100 |  |  |  |  |  |  | > 100 µM |  |  |  |  | 
15 | OC1(c2ccccc2)OC(C#Cc2ccccc2)(c2ccccc2)c2ccccc21 (stereo not drawn) | 26.2 | 3.84 µM | 13.1 | 11.9 µM | 4.05 | 8.01 µM | 7.98 µM | 26.3 |  |  |  |  |  |  | 13.9 µM |  |  |  |  | 
16 | CCOc1cc(/C=N\Nc2nnc(C)n2N)c(C)cc1N(CCCl)CCCl | 51.4 | 15.3 µM | > 44.5 |  | 11.8 | 8.58 µM | 14.7 µM | > 45.7 | 1.97 | 0.525 | 1.28 |  | 1.3 | 1.31 | 9.44 µM | 0.876 | 1.54 | 1.28 | 1.37 | 14.3
17 | N#CCCN(CCC#N)c1ccc(C(Sc2ccccc2)C(NC(=O)c2cc([N+](=O)[O-])ccc2Cl)C(=O)Sc2ccccc2)cc1 (stereo not drawn) | 9.62 | 6.02 µM and 10.5 µM | 11.2 | 9.96 µM and 25.5 µM | 4.77 | 2.56 µM and 2.95 µM | 5.16 µM and 5.01 µM | 18.6 | 3.97 | 2.58 | 2.25 | 5.74 | 1.11 |  | 5.71 µM and 6.5 µM | 0.565 |  | 3.98 |  | 
18 | Nc1ccccc1C#C/C=C\C#Cc1ccccc1[N+](=O)[O-] | > 100 | 10.6 µM | 21.7 | 17.8 µM | 28.4 | > 100 µM |  | 96.2 | 28.2 | 2.02 | 0.718 | 2.51 | 10.5 | 3.28 | 23 µM | 27.7 |  | 19.8 | 1.23 | 6.47
19 | Cc1cccc(C)c1NC(=O)C1C(=O)N(c2c(C)cccc2C)C(=O)/C1=N\NC(N)=S (stereo not drawn) | > 100 | > 100 µM | > 100 | > 100 µM | > 100 | > 100 µM |  | > 100 |  |  |  |  |  |  |  |  |  |  |  | 
20 | COC(=O)C(=O)C(C(=O)C(=O)Nc1cccc(C(C)=O)c1)c1nc2ccccc2[nH]c1=O (stereo not drawn) | > 100 | > 100 µM | > 100 | > 100 µM | > 100 | > 100 µM | > 100 µM | > 100 |  |  |  |  |  |  | > 100 µM |  |  |  |  | 
21 | Cc1ccc(-c2cc(-c3ccco3)c(C#N)c(=O)n2C2OC(OC(=O)c3ccccc3)C(OC(=O)c3ccccc3)C2OC(=O)c2ccccc2)cc1 (stereo not drawn) | > 100 | > 100 µM | > 100 | > 100 µM | > 100 | > 100 µM |  |  |  |  |  |  |  |  | > 100 µM |  |  |  |  | 

From PubChem BioAssay (NCI)
